According to the NIST ThermoML archive (doi:10.1021/acs.jced.8b00135):
± gives the expanded uncertainty stated by the source.

How the values were obtained:
[1] = 96.5 kPa, Liquid, Capillary tube (Ostwald / Ubbelohde) method
[2] = refractive index (Na D-line) (dimensionless); settings: 96.5 kPa, Liquid, Standard Abbe refractometry

**Q.** For `Cc1ccccc1O` [2-methylphenol], which viscosity ([1]; 288.15 K) is on record?
**A.** 13.28 ± 0.31 mPa·s

**Q.** What about the viscosity ([1]; 293.15 K) of the same molecule?
**A.** 9.68 ± 0.23 mPa·s

**Q.** And the viscosity ([1]; 298.15 K)?
**A.** 7.76 ± 0.17 mPa·s

**Q.** And the viscosity ([1]; 303.15 K)?
**A.** 6.575 ± 0.15 mPa·s

**Q.** And the viscosity ([1]; 308.15 K)?
**A.** 5.566 ± 0.12 mPa·s

**Q.** What about the refractive index ([2]; 288.15 K) of the same molecule?
**A.** 1.5407 ± 0.008

**Q.** What about the refractive index ([2]; 293.15 K) of the same molecule?
**A.** 1.5392 ± 0.008

**Q.** What about the refractive index ([2]; 298.15 K) of the same molecule?
**A.** 1.5382 ± 0.008

**Q.** And the refractive index ([2]; 303.15 K)?
**A.** 1.5362 ± 0.008

**Q.** What about the refractive index ([2]; 308.15 K) of the same molecule?
**A.** 1.5336 ± 0.008
